According to patent US10800791B2, “Triazole ACC inhibitors and uses thereof” (Gilead Apollo, LLC, priority 2015, dated 2020):
Converted amounts (≈) assume the structure as drawn. Like-named read-outs stand apart in the source and are kept apart here.

What was measured:
fungal (fACC2) = fungal (fACC2) (UniProt Q00955); conditions: read-out: fACC2 (in vitro ACC2 Inhibition Assay, IC50), ADP-Glo, 5 nM ACC2, 20 μM ATP, 20 μM acetyl-CoA
C. krusei = test: Antifungal Activity Assay (broth microtiter MIC), C. krusei; type: cell-based, Candida krusei; conditions: Pichia kudriavzevii, ATCC6258, 48 h, ATCC 6258, 3 replicates, MIC recorded at 48 h, read-out: MIC, C. krusei ATCC 6258
Outline: (§1)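 Susceptibility was determined by CLSI M27-A3 broth microdilution in RPMI 1640 buffered with MOPS. Growth inhibition was scored visually after 48 h.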

Septoria tritici (St) = test: Growth inhibition assay of fungal pathogens, St; type: cell-based; conditions: Zymoseptoria tritici, 48 h, Septoria tritici, read-out: Concentration at 90% Inhibition St
Outline: (§2)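 Percent inhibition derived at 48 hours from OD600 and visual scores versus 2% DMSO control, with media+DMSO blank as background. Spore inocula in 17% V8 medium were sized from 48 h growth curves; compounds tested at final 50/10/2 or 2/0.4/0.08 ppm.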

[1] = tested on: Fusarium moniliforme (Fm); test: Growth inhibition assay of fungal pathogens, Fm; type: cell-based; conditions: Fusarium verticillioides, 48 h, Fusarium moniliforme, read-out: Concentration at 90% Inhibition Fm
Outline: as §2

[2] = tested on: Collectotrichum graminicola (Cg); test: Growth inhibition assay of fungal pathogens, Cg; type: cell-based; conditions: 48 h, Collectotrichum graminicola, read-out: Concentration at 90% Inhibition Cg
Outline: as §2

[3] = tested on: Fusarium virguliforme (Fv); test: Growth inhibition assay of fungal pathogens, Fv; type: cell-based; conditions: 48 h, read-out: Concentration at 90% Inhibition Fv
Outline: as §2

human (hACC2) = human (hACC2) (Homo sapiens, UniProt O00763); test: In vitro ACC inhibition assay (ADP-Glo), hACC2; type: biochemical; conditions: 5 nM ACC2, 20 μM ATP, 20 μM acetyl-CoA
Procedure: The detailed procedure is as follows. […] 10 μL ADP glo reagent was added. […] 20 μL kinase detection reagent was added.

C. parapsilosis = test: Antifungal Activity Assay (broth microtiter MIC), C. parapsilosis; type: cell-based, Candida parapsilosis; conditions: Lodderomyces parapsilosis, ATCC22019, 48 h, ATCC 22019, 3 replicates, MIC recorded at 48 h, read-out: MIC, C. parapsilosis ATCC 22019
Outline: as §1

[4] = tested on: Phytophthora capsici (Pc); test: Growth inhibition assay of fungal pathogens, Pc; type: cell-based; conditions: 48 h, read-out: Concentration at 90% Inhibition Pc
Outline: as §2

Rhizoctonia solani (Rs) = test: Growth inhibition assay of fungal pathogens, Rs; type: cell-based; conditions: 48 h, mycelial plugs, read-out: Concentration at 90% Inhibition Rs
[5] = growth inhibition at 48 hours vs 2% DMSO control
[6] = growth inhibition vs 2% DMSO control at 48 hours

Sequence of fungal (fACC2) (Q00955 whole entry): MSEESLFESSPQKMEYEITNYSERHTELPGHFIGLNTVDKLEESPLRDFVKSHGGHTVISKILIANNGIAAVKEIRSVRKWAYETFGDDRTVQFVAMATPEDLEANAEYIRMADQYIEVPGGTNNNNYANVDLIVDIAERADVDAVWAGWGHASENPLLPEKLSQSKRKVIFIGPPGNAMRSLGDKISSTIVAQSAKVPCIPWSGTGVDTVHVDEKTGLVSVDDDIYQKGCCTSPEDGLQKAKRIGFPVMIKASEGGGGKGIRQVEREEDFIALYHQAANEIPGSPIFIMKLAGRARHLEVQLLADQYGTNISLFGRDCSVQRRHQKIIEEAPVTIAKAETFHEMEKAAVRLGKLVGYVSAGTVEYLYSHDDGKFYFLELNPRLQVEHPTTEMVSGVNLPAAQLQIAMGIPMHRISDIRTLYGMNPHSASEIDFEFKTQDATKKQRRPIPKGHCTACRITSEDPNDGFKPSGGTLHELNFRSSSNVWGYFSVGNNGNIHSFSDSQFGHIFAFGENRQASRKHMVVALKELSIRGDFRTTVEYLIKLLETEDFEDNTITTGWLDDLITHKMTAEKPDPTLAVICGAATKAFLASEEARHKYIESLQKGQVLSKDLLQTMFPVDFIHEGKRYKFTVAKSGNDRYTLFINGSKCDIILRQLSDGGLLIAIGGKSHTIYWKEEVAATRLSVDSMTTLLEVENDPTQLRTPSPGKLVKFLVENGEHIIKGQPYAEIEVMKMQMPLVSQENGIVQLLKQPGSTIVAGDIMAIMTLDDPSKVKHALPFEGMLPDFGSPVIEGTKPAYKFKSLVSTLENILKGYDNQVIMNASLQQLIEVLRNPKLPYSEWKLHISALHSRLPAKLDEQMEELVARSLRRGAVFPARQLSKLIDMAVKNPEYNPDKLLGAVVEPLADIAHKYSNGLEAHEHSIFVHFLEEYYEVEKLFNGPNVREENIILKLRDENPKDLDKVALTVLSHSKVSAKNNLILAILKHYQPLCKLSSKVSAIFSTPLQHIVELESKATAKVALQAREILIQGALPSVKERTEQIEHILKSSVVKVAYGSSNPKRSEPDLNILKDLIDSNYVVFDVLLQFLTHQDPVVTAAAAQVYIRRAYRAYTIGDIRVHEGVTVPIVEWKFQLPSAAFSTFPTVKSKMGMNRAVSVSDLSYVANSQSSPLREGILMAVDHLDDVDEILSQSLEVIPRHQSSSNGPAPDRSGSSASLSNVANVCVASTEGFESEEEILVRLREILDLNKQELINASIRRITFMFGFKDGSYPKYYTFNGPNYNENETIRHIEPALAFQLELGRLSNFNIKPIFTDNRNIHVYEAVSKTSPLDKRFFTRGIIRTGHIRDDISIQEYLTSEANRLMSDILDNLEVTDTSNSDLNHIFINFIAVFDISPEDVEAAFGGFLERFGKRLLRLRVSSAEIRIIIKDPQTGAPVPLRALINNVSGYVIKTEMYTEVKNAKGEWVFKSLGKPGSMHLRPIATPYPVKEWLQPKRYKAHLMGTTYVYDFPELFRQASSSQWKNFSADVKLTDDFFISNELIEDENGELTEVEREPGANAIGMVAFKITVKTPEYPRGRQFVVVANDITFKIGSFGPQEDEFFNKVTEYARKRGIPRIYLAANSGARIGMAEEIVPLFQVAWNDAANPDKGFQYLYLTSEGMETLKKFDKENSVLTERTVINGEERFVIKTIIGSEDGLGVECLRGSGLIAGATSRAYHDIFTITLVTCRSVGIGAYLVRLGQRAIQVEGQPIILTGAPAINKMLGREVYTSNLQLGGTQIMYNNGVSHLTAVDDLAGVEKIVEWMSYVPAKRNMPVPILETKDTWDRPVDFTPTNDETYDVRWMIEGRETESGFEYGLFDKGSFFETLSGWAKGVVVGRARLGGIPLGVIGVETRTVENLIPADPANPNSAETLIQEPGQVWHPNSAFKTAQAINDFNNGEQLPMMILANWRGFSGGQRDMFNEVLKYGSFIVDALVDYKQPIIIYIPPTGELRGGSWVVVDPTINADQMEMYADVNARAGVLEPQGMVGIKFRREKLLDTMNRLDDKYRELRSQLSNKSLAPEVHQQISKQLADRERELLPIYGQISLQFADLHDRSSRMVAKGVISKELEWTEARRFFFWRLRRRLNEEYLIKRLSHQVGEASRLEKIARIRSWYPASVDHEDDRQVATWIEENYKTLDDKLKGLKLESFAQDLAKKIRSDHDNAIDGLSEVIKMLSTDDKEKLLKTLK
Sequence of human (hACC2) (O00763 whole entry): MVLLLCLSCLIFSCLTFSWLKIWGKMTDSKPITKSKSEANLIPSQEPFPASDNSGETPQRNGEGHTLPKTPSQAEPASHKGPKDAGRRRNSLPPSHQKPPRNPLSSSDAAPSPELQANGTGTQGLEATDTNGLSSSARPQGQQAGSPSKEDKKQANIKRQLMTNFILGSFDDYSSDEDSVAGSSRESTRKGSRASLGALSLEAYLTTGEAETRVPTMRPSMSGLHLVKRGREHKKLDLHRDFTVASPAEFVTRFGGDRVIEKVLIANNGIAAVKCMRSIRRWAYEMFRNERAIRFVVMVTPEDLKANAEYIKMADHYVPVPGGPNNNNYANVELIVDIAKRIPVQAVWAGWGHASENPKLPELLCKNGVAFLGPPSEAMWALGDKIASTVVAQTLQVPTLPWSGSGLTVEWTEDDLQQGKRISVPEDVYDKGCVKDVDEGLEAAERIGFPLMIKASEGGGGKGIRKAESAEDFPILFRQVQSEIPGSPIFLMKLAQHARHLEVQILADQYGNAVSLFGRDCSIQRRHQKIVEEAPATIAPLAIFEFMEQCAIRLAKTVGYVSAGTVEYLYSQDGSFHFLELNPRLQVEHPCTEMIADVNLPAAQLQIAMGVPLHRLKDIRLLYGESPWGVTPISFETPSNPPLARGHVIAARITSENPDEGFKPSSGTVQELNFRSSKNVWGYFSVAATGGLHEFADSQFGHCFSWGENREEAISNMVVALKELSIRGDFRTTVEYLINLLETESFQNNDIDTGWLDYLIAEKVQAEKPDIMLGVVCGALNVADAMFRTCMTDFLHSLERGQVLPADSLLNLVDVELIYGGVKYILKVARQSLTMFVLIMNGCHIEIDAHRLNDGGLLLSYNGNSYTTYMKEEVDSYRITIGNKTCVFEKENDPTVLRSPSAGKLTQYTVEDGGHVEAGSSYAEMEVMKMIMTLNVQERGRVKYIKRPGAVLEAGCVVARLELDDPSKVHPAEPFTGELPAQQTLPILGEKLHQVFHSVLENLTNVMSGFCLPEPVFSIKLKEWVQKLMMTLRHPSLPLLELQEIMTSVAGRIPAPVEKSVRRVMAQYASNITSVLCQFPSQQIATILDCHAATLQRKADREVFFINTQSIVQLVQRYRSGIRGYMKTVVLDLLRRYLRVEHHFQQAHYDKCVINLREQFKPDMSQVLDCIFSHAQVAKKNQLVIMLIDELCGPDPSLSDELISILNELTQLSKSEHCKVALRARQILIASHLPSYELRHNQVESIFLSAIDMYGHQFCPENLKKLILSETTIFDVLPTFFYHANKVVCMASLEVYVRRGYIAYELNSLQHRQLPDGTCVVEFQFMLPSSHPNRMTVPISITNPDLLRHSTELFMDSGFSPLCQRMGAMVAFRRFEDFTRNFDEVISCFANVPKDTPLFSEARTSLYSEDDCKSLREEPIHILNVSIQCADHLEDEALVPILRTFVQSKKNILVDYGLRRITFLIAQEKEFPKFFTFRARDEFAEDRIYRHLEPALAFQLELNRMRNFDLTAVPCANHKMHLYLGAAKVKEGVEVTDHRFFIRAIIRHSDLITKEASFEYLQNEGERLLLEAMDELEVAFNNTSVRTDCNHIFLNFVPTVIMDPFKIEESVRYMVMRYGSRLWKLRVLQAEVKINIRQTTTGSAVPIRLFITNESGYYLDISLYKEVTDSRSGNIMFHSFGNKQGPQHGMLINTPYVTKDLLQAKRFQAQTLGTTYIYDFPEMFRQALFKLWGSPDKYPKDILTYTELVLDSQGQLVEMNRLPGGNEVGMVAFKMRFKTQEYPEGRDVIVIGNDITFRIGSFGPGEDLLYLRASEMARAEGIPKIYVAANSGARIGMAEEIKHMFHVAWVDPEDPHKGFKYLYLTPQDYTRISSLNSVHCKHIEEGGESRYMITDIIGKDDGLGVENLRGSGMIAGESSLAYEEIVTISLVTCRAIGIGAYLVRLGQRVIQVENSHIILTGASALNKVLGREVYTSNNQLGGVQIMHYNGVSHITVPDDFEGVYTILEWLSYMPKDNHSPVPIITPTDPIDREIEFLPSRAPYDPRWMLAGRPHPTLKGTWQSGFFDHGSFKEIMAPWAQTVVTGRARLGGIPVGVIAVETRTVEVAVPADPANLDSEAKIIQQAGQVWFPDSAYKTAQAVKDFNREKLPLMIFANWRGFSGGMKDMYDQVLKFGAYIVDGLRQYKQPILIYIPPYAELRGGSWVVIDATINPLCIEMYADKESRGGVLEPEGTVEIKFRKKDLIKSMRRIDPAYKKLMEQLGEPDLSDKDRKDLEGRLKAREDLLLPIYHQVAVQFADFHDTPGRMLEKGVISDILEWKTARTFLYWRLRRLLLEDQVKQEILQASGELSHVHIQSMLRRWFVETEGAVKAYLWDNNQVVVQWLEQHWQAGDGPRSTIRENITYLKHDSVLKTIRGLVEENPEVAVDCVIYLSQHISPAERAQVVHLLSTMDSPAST

Compound | IC50 (fungal (fACC2); Table 2a) | IC50 (fungal (fACC2); Table 2b, additional results) | MIC (C. krusei; Table 3a) | MIC (C. krusei; Table 3b (additional results)) | IC90 (Septoria tritici (St); [5]) | IC90 (Septoria tritici (St); [6]) | IC90 [1, 5] | IC90 [1, 6] | IC90 [2, 5] | IC90 [2, 6] | IC90 [3, 5] | IC90 [3, 6] | IC50 (human (hACC2); Table 2a) | IC50 (human (hACC2); Table 2b, additional results) | MIC (C. parapsilosis; Table 3a) | MIC (C. parapsilosis; Table 3b (additional results)) | IC90 [4, 5] | IC90 [4, 6] | IC90 (Rhizoctonia solani (Rs); [5]) | IC90 (Rhizoctonia solani (Rs); [6])
COc1ccc(F)cc1[C@H](Cn1c(=O)n([C@H](C)C(=O)NC2CCC2)c(=O)c2c(C)c(-n3nccn3)sc21)OCCO [Compound I-84, (R)—N-cyclobutyl-2-(1-((R)-2-(5-fluoro-2-methoxyphenyl)-2-(2-hydroxyethoxy)ethyl)-5-methyl-2,4-dioxo-6-(2H-1,2,3-triazol-2-yl)-1,4-dihydrothieno[2,3-d]pyrimidin-3(2H)-yl)propanamide] | 0.4 to 1 nM | 0.3 to 1 nM | 0.25 to 1 µg/mL (≈ 0.426 to 1.7 µM) | 0.25 to 1 µg/mL (≈ 0.426 to 1.7 µM) | 2 µg/mL (≈ 3.41 µM) | 10 µg/mL (≈ 17 µM) | 0.08 µg/mL (≈ 0.136 µM) | 0.08 µg/mL (≈ 0.136 µM) | 0.08 µg/mL (≈ 0.136 µM) | 0.08 µg/mL (≈ 0.136 µM) | 0.4 µg/mL (≈ 0.682 µM) | 0.4 µg/mL (≈ 0.682 µM) | 5 to 10 nM | 5 to 10 nM | 0.25 to 1 µg/mL (≈ 0.426 to 1.7 µM) | 0.25 to 1 µg/mL (≈ 0.426 to 1.7 µM) | 2 µg/mL (≈ 3.41 µM) | 2 µg/mL (≈ 3.41 µM) | 0.08 µg/mL (≈ 0.136 µM) | 0.08 µg/mL (≈ 0.136 µM)
COc1ccc(F)cc1[C@H](Cn1c(=O)n(C(C)(C)C(=O)NC(C)C)c(=O)c2c(C)c(-n3nccn3)sc21)OCCC#N [Compound I-91, (R)-2-(1-(2-(2-cyanoethoxy)-2-(5-fluoro-2-methoxy-phenyl)ethyl)-5-methyl-2,4-dioxo-6-(2H-1,2,3-triazol-2-yl)-1,4-dihydro-thieno[2,3-d]pyrimidin-3(2H)-yl)-N-isopropyl-2-methylpropanamide] | 1 to 5 nM | 1 to 5 nM | 0.06 to 0.24 µg/mL (≈ 0.1 to 0.402 µM) | 0.25 to 1 µg/mL (≈ 0.418 to 1.67 µM) | > 50 µg/mL | > 50 µg/mL | 0.08 µg/mL (≈ 0.134 µM) | 0.08 µg/mL (≈ 0.134 µM) | 0.08 µg/mL (≈ 0.134 µM) | 0.08 µg/mL (≈ 0.134 µM) | 0.08 µg/mL (≈ 0.134 µM) | 0.08 µg/mL (≈ 0.134 µM) | 10 to 40 nM | 10 to 40 nM | 0.06 to 0.24 µg/mL (≈ 0.1 to 0.402 µM) | 0.25 to 1 µg/mL (≈ 0.418 to 1.67 µM) | 2 µg/mL (≈ 3.35 µM) | 10 µg/mL (≈ 16.7 µM) | 0.08 µg/mL (≈ 0.134 µM) | 0.08 µg/mL (≈ 0.134 µM)
COCCCO[C@@H](Cn1c(=O)n([C@H](C)C(=O)NC(C)C)c(=O)c2c(C)c(-n3nccn3)sc21)c1cc(F)ccc1OC [Compound I-87, (R)-2-(1-((R)-2-(5-fluoro-2-methoxyphenyl)-2-(3-methoxy-propoxy)ethyl)-5-methyl-2,4-dioxo-6-(2H-1,2,3-triazol-2-yl)-1,4-dihydrothieno[2,3-d]pyrimidin-3(2H)-yl)-N-isopropylpropanamide] | 1 to 5 nM | 1 to 5 nM | 1.1 to 2 µg/mL (≈ 1.83 to 3.32 µM) | 1.01 to 2 µg/mL (≈ 1.68 to 3.32 µM) | 10 µg/mL (≈ 16.6 µM) | > 50 µg/mL | 0.08 µg/mL (≈ 0.133 µM) | 0.08 µg/mL (≈ 0.133 µM) | 0.08 µg/mL (≈ 0.133 µM) | 0.08 µg/mL (≈ 0.133 µM) | 0.08 µg/mL (≈ 0.133 µM) | 0.08 µg/mL (≈ 0.133 µM) | 5 to 10 nM | 5 to 10 nM | 0.25 to 1 µg/mL (≈ 0.415 to 1.66 µM) | 1.01 to 2 µg/mL (≈ 1.68 to 3.32 µM) | > 50 µg/mL | > 50 µg/mL | 0.08 µg/mL (≈ 0.133 µM) | 0.08 µg/mL (≈ 0.133 µM)
